Values of other authors in publication PMC12642135 (Food and Waterborne Parasitology, 2025).
Entries after “also recorded” stand apart in the source; their conditions may differ.

Tested on: Toxoplasma gondii
Design: method as in Kul et al., 2013
Settings: lambs, applied from the second week pi (day 14 pi) onwards; ref Kul et al., 2013

Cc1cc(-n2c(=O)[nH]c(=O)n(C)c2=O)ccc1Oc1ccc(SC(F)(F)F)cc1 [toltrazuril]
Reduction of tissue cysts: mildly reduced; also recorded: partial reduction
